Data: PMC10208570, “Peptidomimetic antibiotics disrupt the lipopolysaccharide transport bridge of drug-resistant Enterobacteriaceae” (Science Advances, 2023)
≈ marks a conversion by molar mass, not a printed value. Like-named read-outs stand apart in the source and are kept apart here.

How the values were obtained:
[1] = test system: E. coli ATCC 25922 (parent / WT); experiment: microbe, parasite or virus in culture; conditions: Escherichia coli
Procedure, shortened: (§1)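 First, MICs were measured per CLSI. Next, organisms underwent serial passage. Finally, resistant mutants were isolated, their MICs determined, and whole genomes sequenced with bioinformatic analysis.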

[2] = test system: E. coli ATCC 25922 LptA Q62L mutant; experiment: microbe, parasite or virus in culture; conditions: Escherichia coli
Procedure, shortened: as §1

[3] = test system: Escherichia coli ATCC 25922 KdsD mutant; experiment: microbe, parasite or virus in culture; conditions: Escherichia coli, ATCC25922, read-out: MIC Escherichia coli ATCC 25922 KdsD (2x)
Procedure, shortened: as §1

[4] = test system: Escherichia coli ATCC 25922 LptA E84D mutant; experiment: microbe, parasite or virus in culture; conditions: Escherichia coli, ATCC25922, read-out: MIC Escherichia coli ATCC 25922 LptA E84D (1x)
Procedure, shortened: as §1

[5] = test system: K. pneumoniae ATCC 43816 (parent / WT); experiment: microbe, parasite or virus in culture; conditions: Klebsiella pneumoniae, ATCC43816, read-out: MIC Klebsiella pneumoniae ATCC 43816 WT
Procedure, shortened: as §1

[6] = test system: K. pneumoniae ATCC 43816 LptA Q62L mutant; experiment: microbe, parasite or virus in culture; conditions: Klebsiella pneumoniae
Procedure, shortened: as §1

[7] = test system: K. pneumoniae NCTC 13443 (NDM-1) (parent / WT); experiment: microbe, parasite or virus in culture; conditions: Klebsiella pneumoniae
Procedure, shortened: as §1

[8] = test system: K. pneumoniae NCTC 13443 (NDM-1) LptA Q62L mutant; experiment: microbe, parasite or virus in culture; conditions: Klebsiella pneumoniae
Procedure, shortened: as §1

[9] = test system: Klebsiella pneumoniae ATCC 43816 LapB mutant; experiment: microbe, parasite or virus in culture; conditions: Klebsiella pneumoniae, ATCC43816, read-out: MIC Klebsiella pneumoniae ATCC 43816 LapB (1x)
Procedure, shortened: as §1

[10] = test system: Klebsiella pneumoniae ATCC 43816 LptA I36N mutant; experiment: microbe, parasite or virus in culture; conditions: Klebsiella pneumoniae, ATCC43816, read-out: MIC Klebsiella pneumoniae ATCC 43816 LptA I36N (1x)
Procedure, shortened: as §1

[11] = test system: Klebsiella pneumoniae ATCC 43816 LptA I36S mutant; experiment: microbe, parasite or virus in culture; conditions: Klebsiella pneumoniae, ATCC43816, read-out: MIC Klebsiella pneumoniae ATCC 43816 LptA I36S (1x)
Procedure, shortened: as §1

[12] = test system: Klebsiella pneumoniae ATCC 43816 LptA L116Q mutant; experiment: microbe, parasite or virus in culture; conditions: Klebsiella pneumoniae, ATCC43816, read-out: MIC Klebsiella pneumoniae ATCC 43816 LptA L116Q (1x)
Procedure, shortened: as §1

[13] = test system: Klebsiella pneumoniae ATCC 43816 PglJ, PhnJ, ThiH mutant; experiment: microbe, parasite or virus in culture; conditions: Klebsiella pneumoniae, ATCC43816, read-out: MIC Klebsiella pneumoniae ATCC 43816 PglJ, PhnJ, ThiH (1x)
Procedure, shortened: as §1

[14] = test system: Klebsiella pneumoniae NCTC 13443 LptA I36S mutant; experiment: microbe, parasite or virus in culture; conditions: Klebsiella pneumoniae, NCTC13443, read-out: MIC Klebsiella pneumoniae NCTC 13443 LptA I36S (2x)
Procedure, shortened: as §1

[15] = test system: Klebsiella pneumoniae NCTC 13443 LpxC, LpxD mutant; experiment: microbe, parasite or virus in culture; conditions: Klebsiella pneumoniae, NCTC13443, read-out: MIC Klebsiella pneumoniae NCTC 13443 LpxC, LpxD (1x)
Procedure, shortened: as §1

[16] = test system: Klebsiella pneumoniae NCTC 13443 YejM mutant; experiment: microbe, parasite or virus in culture; conditions: Klebsiella pneumoniae, NCTC13443, read-out: MIC Klebsiella pneumoniae NCTC 13443 YejM (1x)
Procedure, shortened: as §1

[17] = test system: K. pneumoniae 968733 (CST-R); experiment: MIC assay (CLSI); assay type: cell-based, Klebsiella pneumoniae; conditions: Klebsiella pneumoniae, read-out: MIC K. pneumoniae 968733 (CST-R) Parent
Experimental: (§2) MIC assays [Clinical and Laboratory Standards Institute (CLSI) methodology] and serial passage studies were performed as described by Luther et al. ([6]). […] Resistant mutants were isolated, and their MIC values were determined and sent to Microbes NG (Birmingham, United Kingdom) for whole-genome sequencing and bioinformatic analysis.

[18] = test system: panel of 121 Enterobacteriaceae including CRE, MDR, and XDR isolates; experiment: organism not typed
Experimental: as §2

[19] = test system: Enterobacteriaceae (CS, Col-S) (n=22); assay type: cell-based; conditions: CLSI microdilution; minimum and maximum MIC of the panel; carbapenem sensitive, colistin sensitive
Experimental: as §2

E. coli ST131 (n=8) = experiment: MIC against isolate panel; assay type: cell-based, Escherichia coli; conditions: CLSI microdilution; minimum and maximum MIC of the panel
Experimental: as §2

`C[C@@H](O)[C@H]1C(=O)N2C(C(=O)O)=C(S[C@@H]3CN[C@H](C(=O)N(C)C)C3)[C@H](C)[C@H]12` [Meropenem] was tested, and the MIC ([1]; ATCC25922, read-out: MIC E. coli ATCC 25922 Parent) was 0.063 µg/mL (≈ 0.164 µM), the MIC ([1]; ATCC25922, read-out: MIC Escherichia coli ATCC 25922 WT) was ≤ 0.06 µg/mL and the MIC ([2]; ATCC25922, read-out: MIC E. coli ATCC 25922 Q62L mutant) was 0.063 µg/mL (≈ 0.164 µM). The MIC ([2]; ATCC25922, read-out: MIC Escherichia coli ATCC 25922 LptA Q62L (7x)) was ≤ 0.06 µg/mL, the MIC [3] was 0.13 µg/mL (≈ 0.339 µM) and the MIC [4] was ≤ 0.06 µg/mL. The MIC [5] was 0.13 µg/mL (≈ 0.339 µM), the MIC ([6]; ATCC43816, read-out: MIC K. pneumoniae ATCC 43816 Q62L mutant) was 0.063 µg/mL (≈ 0.164 µM) and the MIC ([6]; ATCC43816, read-out: MIC Klebsiella pneumoniae ATCC 43816 LptA Q62L (4x)) was ≤ 0.06 µg/mL. For the same molecule, the MIC ([7]; NCTC13443, read-out: MIC K. pneumoniae NCTC 13443 (NDM-1) Parent) was > 8 µg/mL, the MIC ([7]; NCTC13443, read-out: MIC Klebsiella pneumoniae NCTC 13443 WT) was > 64 µg/mL and the MIC ([8]; NCTC13443, read-out: MIC K. pneumoniae NCTC 13443 (NDM-1) Q62L mutant) was > 8 µg/mL. For the same molecule, the MIC ([8]; NCTC13443, read-out: MIC Klebsiella pneumoniae NCTC 13443 LptA Q62L (5x)) was > 64 µg/mL, the MIC [9] was 0.13 µg/mL (≈ 0.339 µM) and the MIC [10] was ≤ 0.06 µg/mL. For the same molecule, the MIC [11] was ≤ 0.06 µg/mL, the MIC [12] was ≤ 0.06 µg/mL and the MIC [13] was 0.13 µg/mL (≈ 0.339 µM). The MIC [14] was > 64 µg/mL, the MIC [15] was > 64 µg/mL and the MIC [16] was > 64 µg/mL. The MIC [17] was 0.031 µg/mL (≈ 0.0808 µM), the MIC50 ([18]; read-out: MIC50 (n=121)) was > 8 µg/mL and the MIC90 ([18]; read-out: MIC90 (n=121)) was > 64 µg/mL. For the same molecule, the “MIC range Enterobacteriaceae (CS, Col-S) (n=22)” value [19] was ≤0.06 to 0.5 µg/mL and the “MIC range E. coli ST131 (n=8)” value (E. coli ST131 (n=8)) was “<=0.06-8 µg/mL”.
